How the values were obtained:
[1] = target: T1, hERG potassium channel (Homo sapiens, UniProt Q12809); test: hERG inhibition, automated QPatch patch clamp in CHO cells stably expressing hERG
[2] = test system: forced swimming mice (immobility); test: Forced swimming test in mice; format: in vivo, KM mice; settings: for inhibition in vivo at 10 mg/kg: Mus musculus, po, mice, 10 mg/kg i.g., 100 × [(control − experiment)/control], read-out: Reduction (%) of immobility time vs control; for Antidepressant activity compared with laetispicine (in words): forced swimming test in mice, 10 mg/Kg
Description: KM mice (18–22 g) of either sex were obtained from Laboratory Animal Center of the College of Medicine, Fudan University. Animals were housed in standard environmental conditions with free access to food and water. The animals were used only once throughout the study. They were allowed to acclimatize to the laboratory seven days before pharmacological tests. The experiment procedures were conducted in compliance with the National Institutes of Health Guide for Care and Use of the laboratory Animals.
Tween 80 was purchased from Sinopharm Chemical Reagent Co., Ltd (Shanghai, China), fluoxetine from Shanghai Zhongxi Pharmaceutical Co., Ltd. All other reagents were of analytical grade. All drugs were dissolved in saline with 2% Tween 80. Drugs (10 mg/kg/2 mL) were administered by intragastric (i.g.) route 60 min before the forced swimming tests. The control group received only saline with 2% Tween 80 simultaneously.
The forced swimming test adopted here is a modification of the method described by Porsoltetal. Briefly, mice were individually forced to swim for 15 min in glass cylinders (height: 20 cm, diameter: 14 cm), containing 10 cm of water at 25 °C, which is a pre-test, and then mice were removed and dried before being returned to cages. Twenty-four hours later, mice were placed in the cylinders again for a 6-min test in the same system depicted above. The duration of immobility was recorded during the last 4 min of the 6-min testing period.
Data obtained were expressed as mean ± SEM and analyzed by analysis of variance (ANOVA) followed by Bonferroni’s test. p-values less than 0.05 (p < 0.05) were used as the significant level. The percent of inhibition was determined using the following formula: Inhibition (%) = 100 × [(control − experiment) / control].

[3] = target: T1, hERG potassium channel; test: in vitro

T1 sequence (Q12809 whole entry): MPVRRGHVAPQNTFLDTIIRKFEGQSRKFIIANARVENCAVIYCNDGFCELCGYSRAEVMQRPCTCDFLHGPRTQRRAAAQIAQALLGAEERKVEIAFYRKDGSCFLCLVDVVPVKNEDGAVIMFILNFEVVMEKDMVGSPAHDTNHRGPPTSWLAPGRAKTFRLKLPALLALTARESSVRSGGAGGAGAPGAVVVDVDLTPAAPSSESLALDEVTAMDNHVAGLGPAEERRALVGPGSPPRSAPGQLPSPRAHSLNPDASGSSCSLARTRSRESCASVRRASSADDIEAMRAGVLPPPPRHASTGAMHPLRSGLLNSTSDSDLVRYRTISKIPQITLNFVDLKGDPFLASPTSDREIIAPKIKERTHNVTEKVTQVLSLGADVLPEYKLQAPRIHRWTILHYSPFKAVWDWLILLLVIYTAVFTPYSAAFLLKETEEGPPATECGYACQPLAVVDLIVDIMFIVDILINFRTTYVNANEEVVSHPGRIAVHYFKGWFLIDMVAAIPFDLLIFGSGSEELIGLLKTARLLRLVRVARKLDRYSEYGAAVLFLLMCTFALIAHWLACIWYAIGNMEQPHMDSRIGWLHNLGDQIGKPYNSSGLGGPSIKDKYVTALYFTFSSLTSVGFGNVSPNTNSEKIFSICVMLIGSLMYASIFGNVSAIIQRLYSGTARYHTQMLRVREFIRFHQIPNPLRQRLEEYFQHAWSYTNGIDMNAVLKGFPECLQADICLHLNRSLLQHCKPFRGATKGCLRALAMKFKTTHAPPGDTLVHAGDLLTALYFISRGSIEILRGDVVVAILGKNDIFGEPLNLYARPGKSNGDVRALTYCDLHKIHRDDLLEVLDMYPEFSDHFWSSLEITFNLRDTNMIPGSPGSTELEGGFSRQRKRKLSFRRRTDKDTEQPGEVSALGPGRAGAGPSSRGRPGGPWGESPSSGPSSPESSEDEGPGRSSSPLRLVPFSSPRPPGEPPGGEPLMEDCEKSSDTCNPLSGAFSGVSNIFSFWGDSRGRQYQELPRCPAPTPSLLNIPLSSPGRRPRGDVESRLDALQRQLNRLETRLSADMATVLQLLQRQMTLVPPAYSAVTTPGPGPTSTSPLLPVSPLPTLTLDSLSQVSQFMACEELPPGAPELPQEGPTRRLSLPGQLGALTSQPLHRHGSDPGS

Row | melting point | Structure (SMILES) | inhibition at 1 µM ([1]; human, CHO cells stably expressing hERG) | inhibition in vivo at 10 mg/kg [2] | Antidepressant activity compared with laetispicine (in words) [2] | IC50 [1] | inhibition at 1 µM [3] | inhibition at 10 µM [3] | inhibition at 100 µM [3]
1 |  | COc1cc(N)c(Cl)cc1C(=O)NC1CCN(CCCOc2ccc(F)cc2)CC1OC (stereo not shown) [Cisapride, reference compound] | 97.9 ± 0.5% |  |  |  |  |  | 
2 | 80 to 82 °C | CC(C)CNC(=O)/C=C/C=C/CCC/C=C/Cc1ccccc1 [Compound 1b, N-Isobutyl-11-phenylundeca-2E,4E,9E-trienamide] |  | 39% |  |  |  |  | 
3 |  | COc1ccc(C/C=C/CCC/C=C/C=C/C(=O)NCC(C)C)cc1 [Compound 1c, N-Isobutyl-11-(4-methoxyphenyl)undeca-2E,4E,9E-trienamide] |  | 5% | lost their antidepressant activities entirely |  |  |  | 
4 | 61 to 63 °C | COc1ccc(C/C=C/CCC/C=C/C=C/C(=O)NCC(C)C)cc1OC [Compound 1d, N-Isobutyl-11-(3,4-dimethoxyphenyl)undeca-2E,4E,9E-trienamide] |  | 6% | lost their antidepressant activities entirely |  |  |  | 
5 | 72 to 73 °C | COc1cc(C/C=C/CCC/C=C/C=C/C(=O)NCC(C)C)cc(OC)c1OC [Compound 1e, N-Isobutyl-11-(3,4,5-trimethoxyphenyl)undeca-2E,4E,9E-trienamide] |  | 27% | less antidepressant activities than laetispicine |  |  |  | 
6 |  | CC(C)CNC(=O)/C=C/C=C/CCC/C=C/Cc1ccc2c(c1)CCO2 [Compound 1f, N-Isobutyl-11-(2,3-dihydrobenzofuran-5-yl)undeca-2E,4E,9E-trienamide] |  | 5% | lost their antidepressant activities entirely |  |  |  | 
7 | 69 to 72 °C | CC(C)CNC(=O)/C=C/C=C/CCC/C=C/Cc1ccc2c(c1)OCCO2 [Compound 1g, N-Isobutyl-11-(2,3-dihydrobenzo [1, 4]dioxin-6-yl)undeca-2E,4E,9E-trienamide] |  | 29% | less antidepressant activities than laetispicine |  |  |  | 
8 |  | CC(C)CNC(=O)/C=C/C=C/CCC/C=C/Cc1ccc(Cl)cc1 [Compound 1h, N-Isobutyl-11-(4-chlorophenyl)undeca-2E,4E,9E-trienamide] |  | 52% | better antidepressant activities than that of laetispicine | > 100 µM | 8 ± 2.3% | 13.9 ± 2% | 24.2 ± 4.9%
9 | 75 to 77 °C | CC(C)CNC(=O)/C=C/C=C/CCC/C=C/Cc1ccc(F)cc1 [Compound 1i, N-isobutyl-11-(4-fluorophenyl)undeca-2E,4E,9E-trienamide] |  | 43% | better antidepressant activities than that of laetispicine | > 100 µM | 7.1 ± 0.7% | 10.7 ± 0.1% | 17.7 ± 1.5%
10 |  | CNCCC(Oc1ccc(C(F)(F)F)cc1)c1ccccc1 (stereo not shown) [Fluoxetine, fluoxetine, reference compound] |  | 0% |  |  |  |  | 
11 |  | CC(C)CNC(=O)/C=C/C=C/CCC/C=C/Cc1ccc2c(c1)OCO2 [Laetispicine (1a), Laetispicine] |  | 33% |  |  |  |  | 

Source: PMC6268093, “Total Synthesis and Antidepressant Activities of Laetispicine and Its Derivatives” (Molecules, 2012)
